This is an account of results in patent US9284303B2, “Benzimidazole cannabinoid agonists bearing a substituted heterocyclic group” (priority 2006, dated 2016).

In data set [1] the target is T1, human CB2 (hCB2) receptor (Homo sapiens, UniProt P34972).
T1 construct: expressed in transfected cells; host or cells: CHO-K1
In words: Inhibition of forskolin-activated cAMP production upon activation of hCB2 (HTRF), CHO-K1 cells. In kind it is cell-based. The note with it: for ratio CB2 agonism over CB1 agonism: Table C-1, selectivity hCB2 over hCB1; for EC50: forskolin-activated cAMP, pEC50=-log(EC50); for ratio CB2 over CB1 agonism: Table C-3, comparison of art compounds A to E with compounds of the invention. Here is the method: (§1) Functional activity of the test compounds was assessed by measuring their potency to inhibit forskolin-activated cAMP production upon activation of the human CB1 (hCB1) or human CB2 (hCB2) receptor through homogenous time resolved fluorescence (HTRF) assays.
(§2) Before the experiments, medium was removed, cells were washed with PBS/EDTA (140 mM NaCl, 1 mM Naz-EDTA, 8 mM Na2HPO4.2H2O, 8.5 mM KH2PO4, 2.7 mM KCl, 21 mM glucose), resuspended in stimulation buffer (HBSS 1x, IBMX 1 mM, Hepes 5 mM, MgCl2 10 mM, BSA 0.1%, pH 7.4). Cells were diluted to a concentration of 8.10^5 cell/ml for hCB1 experiments and 10^6 cells/ml for hCB2 experiments. Assays were performed using the cAMP Dynamic HTRF kit (CIS bio international, France) according to the recommendations of the manufacturer.
Then, 20 μl of the diluted hCB2-CHO-K1 cells was added (20,000 cells/well). After 30 minutes incubation in dark at room temperature, 10 μl cAMP-XL665 and 10 μl anti-cAMP cryptate (both at a final dilution of 1/100) was added to the cells.

The target of data set [2] is T2, human CB1 (hCB1) receptor (Homo sapiens, UniProt P21554).
T2 construct: expressed in transfected cells; host or cells: CHO-K1
In words: Inhibition of forskolin-activated cAMP production upon activation of hCB1 (HTRF), CHO-K1 cells. In kind it is cell-based. As to conditions: forskolin-activated cAMP, pEC50=-log(EC50); for EC50: CB1 pEC50, hCB1-CHO-K1 cells. As for the experimental part: as §1
as §2, with “CHO-K1 cells stably transfected with either hCB1 or hCB2 were grown up to 80-90% confluence in T175 Falcon flasks in DMEM/NUT MIX F-12 culture medium complemented with 2% Solution A (5.10^6 IU/l penicillin G, 5 g/l streptomycin sulphate, 5.5 g/l pyruvate, 14.6 g/l L-glutamine, 1M NaOH) and 10% foetal calf serum. Before” for “Before”
For CB1, each well of a 96 flat bottom black polystyrene assay plate (Costar) was filled with 25 μl stimulation buffer containing 6 μM forskolin and either test compound (in 2% DMSO), 2% DMSO or 2 μM CP55490 (in 2% DMSO). Then, 25 μl of the diluted cells was added (20,000 cells/well). After 30 minutes incubation in dark at room temperature, 25 μl cAMP-XL665 and 25 μl anti-cAMP cryptate (both at a final dilution of 1/80) was added to the cells.
After equilibration of the reaction mixtures for 1 to 24 hours in dark at room temperature, fluorescence was measured at 665 nm and 620 nm using a Discovery microplate fluorescence counter (Perkin Elmer), and the signal ratio of 665 nm/620 nm was calculated. The signal ratios of the test compounds were expressed relative to the signal ratios of the DMSO control (maximal signal ratio, no inhibition of cAMP) and CP55490 or WIN55212-2 for hCB1 and hCB2, respectively (minimal signal ratio, maximal inhibition of cAMP). From the dose response curves generated for each test compound, the dose at which 50% of the maximal inhibition of cAMP level is observed (EC50, expressed in the Tables as pEC50=−log(EC50) values) and the level of inhibition reached with 10 μM of the test compound compared to CP55490 (for hCB1) or WIN55212-2 (for hCB2) was calculated.
A general note: Changes in cAMP serve as a functional read-out for many G protein-coupled receptors.

Where [3] appears, read: hCB2-CHO-K1 cells, read-out: CB2 pEC50 (converted).

Structures can show the parent of a compound that is named as a salt. Where two headings read alike, the source gives them in different places.

T1 sequence (P34972 whole entry): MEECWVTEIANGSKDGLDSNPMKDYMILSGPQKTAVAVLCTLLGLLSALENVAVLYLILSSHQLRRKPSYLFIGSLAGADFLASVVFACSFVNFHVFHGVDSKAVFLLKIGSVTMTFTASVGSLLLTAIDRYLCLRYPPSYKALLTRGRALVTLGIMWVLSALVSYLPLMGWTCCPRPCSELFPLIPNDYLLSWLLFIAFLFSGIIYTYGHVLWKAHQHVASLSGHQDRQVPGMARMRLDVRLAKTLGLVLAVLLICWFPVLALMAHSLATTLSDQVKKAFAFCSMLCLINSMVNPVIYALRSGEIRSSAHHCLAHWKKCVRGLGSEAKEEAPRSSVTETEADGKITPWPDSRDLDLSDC
T2 sequence (P21554 whole entry): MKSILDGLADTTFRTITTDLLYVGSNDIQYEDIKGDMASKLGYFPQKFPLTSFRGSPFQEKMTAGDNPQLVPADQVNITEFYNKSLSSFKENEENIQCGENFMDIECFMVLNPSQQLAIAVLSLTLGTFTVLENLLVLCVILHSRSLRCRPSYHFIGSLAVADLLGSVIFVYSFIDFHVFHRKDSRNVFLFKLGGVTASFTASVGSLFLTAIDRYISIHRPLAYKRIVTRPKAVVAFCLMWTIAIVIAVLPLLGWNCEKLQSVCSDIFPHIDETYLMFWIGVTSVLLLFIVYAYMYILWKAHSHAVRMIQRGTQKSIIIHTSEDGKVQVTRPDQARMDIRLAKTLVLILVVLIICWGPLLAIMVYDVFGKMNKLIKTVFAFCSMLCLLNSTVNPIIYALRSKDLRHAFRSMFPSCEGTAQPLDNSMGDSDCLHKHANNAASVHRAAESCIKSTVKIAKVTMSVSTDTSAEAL

By melting point is commonly meant the temperature, or range, at which the solid turns liquid. The compound `Cc1nccc(S(=O)(=O)c2ccc3c(c2)nc(C(C)(C)C)n3CC2CCOCC2)n1` [Co. No. 107] came in with a melting point of 179.7 °C. Besides, the “ratio CB2 agonism over CB1 agonism” value in data set [1] was 646. Besides, the EC50 in data set [1] (setting [3]) is 2.4 nM. In data set [2], the EC50 is 1550 nM.
`CC(C)(C)c1nc2cc(S(=O)(=O)c3ncccc3C#N)ccc2n1CC1CCOCC1` [Co. No. 104] came in with a melting point of 100 to 105 °C. In data set [1], the “ratio CB2 agonism over CB1 agonism” value was 117. The EC50 in data set [1] (setting [3]) was 0.741 nM. The EC50 in data set [2] is 87.1 nM.
Taken in the same sequence, the figures for `CC(C)(C)c1nc2cc(S(=O)(=O)c3ccc(=O)[nH]n3)ccc2n1CC1CCOCC1` [Co. No. 94] were 218.3 °C, 1059, 2.51 nM and 2690 nM.
In turn, `CC(=O)NCCNc1cc(S(=O)(=O)c2ccc3c(c2)nc(C(C)(C)C)n3CC2CCOCC2)ccn1` [Co. No. 123] returned a melting point of 217.2 °C. The “ratio CB2 agonism over CB1 agonism” value in data set [1] was greater than 2399. The EC50 in data set [1] (setting [3]) was 4.17 nM. In addition, the EC50 in data set [2] is greater than 10000 nM.
On to `CC(C)(C)c1nc2cc(S(=O)(=O)c3ccnc(F)c3)ccc2n1CC1CCC1` (as salt: HCl) (hydrate or solvate) [Co. No. 136], for which the melting point was determined as 184.3 °C.
`COCCCOc1cc(S(=O)(=O)c2ccc3c(c2)nc(C(C)(C)C)n3CC2CCOCC2)ccn1` [Co. No. 151] returned a melting point of 106.5 °C. In data set [1], the “ratio CB2 agonism over CB1 agonism” value is 8035. Moreover, the EC50 in data set [1] (setting [3]) is 0.479 nM. Further, in data set [2] (hCB1-CHO-K1 cells), the “CB1 pEC50” value is 5.41.
As for `CC(C)(C)c1nc2cc(S(=O)(=O)c3cc[n+]([O-])cc3Br)ccc2n1CC1CCOCC1` [Co. No. 87], the melting point turned out to be 205.3 °C. In addition, the EC50 in data set [1] (setting [3]) was 2.14 nM. The compound further showed an EC50 in data set [2] of 2290 nM.
`CC(=O)N1CCC(Cn2c(C(C)(C)C)nc3cc(S(=O)(=O)c4ccc(C#N)s4)ccc32)CC1` [Co. No. 159] came in with a melting point of 181.2 °C. For the same compound, in data set [1], the “ratio CB2 agonism over CB1 agonism” value is greater than 4677. Further, the EC50 in data set [1] (setting [3]) is 2.14 nM. This compound also displayed an EC50 in data set [2] greater than 10000 nM.
Taken in the same sequence, the figures for `COc1ccc(S(=O)(=O)c2ccc3c(c2)nc(C(C)(C)C)n3CC2CCOCC2)nn1` [Co. No. 11] were 174 to 180 °C, 48, 1.26 nM and 60.3 nM.
With `CC(=O)N1CCC(Cn2c(C(C)(C)C)nc3cc(S(=O)(=O)c4ccnc(F)c4)ccc32)CC1`, the melting point was 193.9 °C.
Turning to `CC(C)(C)c1nc2cc(S(=O)(=O)c3ccc(S(C)(=O)=O)o3)ccc2n1CC1CCOCC1` [Co. No. 20], the melting point was found to be 165.2 °C. For the same compound, in data set [1], the “ratio CB2 agonism over CB1 agonism” value is on record as 347 and the “ratio CB2 over CB1 agonism” value is 346. For the same compound, in data set [1] (setting [3]), the EC50 is 1.26 nM. This compound also had an EC50 in data set [2] of 437 nM.
The compound `CC(C)(C)c1nc2cc(S(=O)(=O)c3cc(Cl)cc(Cl)n3)ccc2n1CC1CCOCC1` [Co. No. 10] gave a melting point of 137.43 °C. For the same compound, in data set [1], the “ratio CB2 agonism over CB1 agonism” value worked out at 12883 and the “ratio CB2 over CB1 agonism” value is given as 12883. Further, in data set [1] (setting [3]), the EC50 was 0.741 nM. The EC50 in data set [2] was 9550 nM.
Compound `CC(C)(C)c1nc2cc(S(=O)(=O)c3ccnc(F)c3)ccc2n1CC1CCN(C=O)CC1` [Co. No. 112] registered a melting point of 196.7 °C. Further, the “ratio CB2 agonism over CB1 agonism” value in data set [1] was greater than 2030. For the same compound, in data set [1] (setting [3]), the EC50 was 4.9 nM. Moreover, in data set [2], the EC50 is greater than 10000 nM.
As to `CC(C)(C)c1nc2cc(S(=O)(=O)c3cccc(C#N)n3)ccc2n1CC1CCOCC1` [Co. No. 98], the melting point lay within 224.5 to 226.7 °C. Also, the “ratio CB2 agonism over CB1 agonism” value in data set [1] is listed as 794. In data set [1] (setting [3]), the EC50 was 0.955 nM. Moreover, in data set [2], the EC50 is 741 nM.
Turning to `CC(C)(C)c1nc2cc(S(=O)(=O)c3cc[n+]([O-])cc3)ccc2n1CC1CCOCC1` [Co. No. 3], the melting point is 203 °C. The EC50 in data set [1] (setting [3]) is 1.74 nM. The EC50 in data set [2] is 692 nM.
In turn, `CC(C)(C)c1nc2cc(S(=O)(=O)c3ccnc(F)c3)ccc2n1CCCC(F)(F)F` returned a melting point of 138.9 °C.
Turning to `CC(C)(C)c1nc2cc(S(=O)(=O)c3ccc(C(=O)N4CCCC4)o3)ccc2n1CC1CCOCC1` (as salt: HCl) [Co. No. 74], the melting point amounted to 108.5 °C.
Regarding `CC(C)(C)c1nc2cc(S(=O)(=O)c3ccn(/C(F)=C\I)c(=O)c3)ccc2n1CC1CCOCC1` [Co. No. 91], the melting point turned out to be 164.4 °C. The “ratio CB2 agonism over CB1 agonism” value in data set [1] turned out to be 1995. In addition, the EC50 in data set [1] (setting [3]) is 5.01 nM.
Turning to `CC(C)(C)c1nc2cc(S(=O)(=O)c3ncc(C#N)s3)ccc2n1CCCC(F)(F)F`, the melting point came to 122 °C.
Compound `CC(C)(C)c1nc2cc(S(=O)(=O)c3ccc(S(N)(=O)=O)s3)ccc2n1CC1CCOCC1` (as salt: HCl) [Co. No. 47] had a melting point of 255 to 260 °C.
In turn, `CC(C)(C)c1nc2cc(S(=O)(=O)c3cc[n+]([O-])cc3C(F)(F)F)ccc2n1CC1CCOCC1` [Co. No. 21] gave a melting point of 205.8 °C. Also, the EC50 in data set [1] (setting [3]) is 3.8 nM.
`CC(C)(C)c1nc2cc(S(=O)(=O)c3ccc(S(N)(=O)=O)s3)ccc2n1CC1CCOCC1` registered a melting point of 259 °C.
On the same count and under the same terms, as for `CC(C)(C)c1nc2cc(S(=O)(=O)c3ccc(S(C)(=O)=O)s3)ccc2n1CC1CCOCC1` (as salt: HCl) [Co. No. 58], the figure is 224 °C; as for `CC(C)(C)c1nc2cc(S(=O)(=O)c3ccnc(O)c3)ccc2n1CCCC(F)(F)F`, 277.5 °C.
Take `CC(O)c1ccc(S(=O)(=O)c2ccc3c(c2)nc(C(C)(C)C)n3CC2CCOCC2)nc1` (centres unmarked) [Co. No. 42]: the melting point lay in the range of 177 to 179 °C. The compound also showed an EC50 in data set [1] (CB2 pEC50, hCB2-CHO-K1 cells) of 0.631 nM. Further, the EC50 in data set [1] (setting [3]) was 3.98 nM.
`CC(C)(C)c1nc2cc(S(=O)(=O)c3ccc(C#N)s3)ccc2n1CC1CCOCC1` came in with a melting point of 156 °C.
Same read-out and setting: the result for `CC(O)c1ccc(S(=O)(=O)c2ccc3c(c2)nc(C(C)(C)C)n3CC2CCOCC2)s1` (centres unmarked) reads 192 °C; that for `CCOc1cc(S(=O)(=O)c2ccc3c(c2)nc(C(C)(C)C)n3CCCC(F)(F)F)ccn1`, 137.7 °C.
For `CCOc1cc(S(=O)(=O)c2ccc3c(c2)nc(C(C)(C)C)n3CC2CCOCC2)ccn1` [Co. No. 9], in data set [1], the “ratio CB2 agonism over CB1 agonism” value is listed as 4266 and the “ratio CB2 over CB1 agonism” value is reported as 4266. Besides, the EC50 in data set [1] (setting [3]) was 0.331 nM. The EC50 in data set [2] was 1410 nM.
For the compound `CC(C)(C)c1nc2cc(S(=O)(=O)c3ccnc(F)c3)ccc2n1C[C@H]1CC[C@@](C)(O)CC1` [Co. No. 153], in data set [1], the “ratio CB2 agonism over CB1 agonism” value is reported as greater than 11749. The EC50 was 0.851 nM in data set [1] (setting [3]) and greater than 10000 nM in data set [2].
In the case of `CC(C)(C)c1nc2cc(S(=O)(=O)c3ncc(S(C)(=O)=O)cc3Br)ccc2n1CC1CCOCC1` [Co. No. 76], the “ratio CB2 agonism over CB1 agonism” value in data set [1] was greater than 832. In addition, the EC50 in data set [1] (setting [3]) was 12 nM; in data set [2] it was greater than 10000 nM.
The compound `CC(C)(C)c1nc2cc(S(=O)(=O)c3ccnc(C#N)c3)ccc2n1CC1CCOCC1` (as salt: methanesulfonate) [Co. No. 93] had a melting point of 215.7 °C.
